Measured values as given in patent publication USRE36832E, “N-heteroaryl-N'-phenylurea derivatives, their production and use” (Nihon Nohyaku Co., LTD, priority 1993, dated 2000).

Molecular target: T1, acyl-CoA:cholesterol O-acyltransferase (ACAT) (Oryctolagus cuniculus, UniProt G1SFD9)
T1 construct: The intestinal mucosa of a white rabbit was homogenized and microsomal fraction was obtained by stepwise centrifugation; from tissue; host or cells: intestinal mucosa of white rabbit, microsomal fraction
T1 sequence (G1SFD9 1-524): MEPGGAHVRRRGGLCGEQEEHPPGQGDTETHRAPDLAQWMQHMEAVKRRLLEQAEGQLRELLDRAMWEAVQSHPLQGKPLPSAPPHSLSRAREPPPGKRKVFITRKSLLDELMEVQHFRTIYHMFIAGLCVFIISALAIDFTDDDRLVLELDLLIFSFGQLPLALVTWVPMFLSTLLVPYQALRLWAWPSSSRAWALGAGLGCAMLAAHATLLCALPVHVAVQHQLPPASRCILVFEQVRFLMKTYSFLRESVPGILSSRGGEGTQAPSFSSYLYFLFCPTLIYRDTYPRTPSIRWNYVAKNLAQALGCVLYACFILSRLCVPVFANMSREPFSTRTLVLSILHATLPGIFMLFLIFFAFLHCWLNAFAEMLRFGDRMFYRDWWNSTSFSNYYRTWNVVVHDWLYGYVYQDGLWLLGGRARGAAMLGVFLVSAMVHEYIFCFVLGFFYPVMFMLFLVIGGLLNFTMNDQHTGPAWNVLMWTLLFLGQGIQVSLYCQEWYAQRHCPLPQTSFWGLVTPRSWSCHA
Assay: Inhibitory activity on acyl-CoA:cholesterol O-acyltransferase (ACAT), intestinal mucosa microsomal fraction, [1-14C]oleyl-CoA incorporation into cholesterol esters
Assay type: biochemical, white rabbit
Settings: read-out: Inhibition rate %
Protocol: Inhibitory activity on acyl-CoA:cholesterol Oacyltransferase (ACAT)
The enzyme used in the test was prepared according to the method of Heider et al. [J. Lipid, Res. 24, 1127 (1983)]. The intestinal mucosa of a white rabbit was homogenized and microsomal fraction was obtained by stepwise centrifugation. The microsomal fraction was suspended in 0,154M phosphate buffer (pH 0 7.4) and stored at -80° C. until use.
ACAT activity was determined by a modification of the method of Helgerud et al. [J. Lipid Res. 22, 271 (1981)] by measuring radioactivity incorporated into cholesterol esters from [1-14C]oleyl-CoA, as an indication. As to the ACAT-inhibiting activity of each compound to be tested, the inhibition rate was calculated by the following equation.

Row | inhibition at 0.01 µM | inhibition at 1 µM | SMILES
1 | 37.2% | 99.1% | O=C(Nc1ccccc1C(F)(F)F)Nc1oc2ccc(Cl)cc2c1-c1ccccc1Cl [Compound 7, N-[5-Chloro-3-(2-chlorophenyl)benzofuran-2-yl]-N'-(2-trifluoromethylphenyl)urea]
2 | 82.6% | – | CCc1cccc(CC)c1NC(=O)Nc1oc2ccc(Cl)cc2c1-c1ccccc1C [Compound 60, N-[5-Chloro-3-(2-methylphenyl)benzofuran-2-yl]-N'-(2,6-diethylphenyl)urea]
3 | 37.6% | 98.9% | Cc1cc2oc(NC(=O)Nc3c(C)cccc3C)c(-c3ccccc3Cl)c2cc1C [Compound 36, N-[3-(2-Chlorophenyl)-5,6-dimethylbenzofuran-2-yl]-N'-(2,6-dimethylphenyl)urea]
4 | 69.2% | – | CC(C)c1cccc(C(C)C)c1NC(=O)Nc1oc2ccc(Cl)cc2c1-c1ccccc1F [Compound 58, N-[5-Chloro-3-(2-fluorophenyl)benzofuran-2-yl]-N'-(2,6-diisopropylphenyl)urea]
5 | 81.3% | – | Cc1cc2sc(NC(=O)Nc3c(C)cccc3N(C)C)c(-c3ccccc3Cl)c2cc1C [Compound 83, N-[3-(2-Chlorophenyl)-5,6-dimethyl-1-benzothiophen-2-yl]-N'-(2-dimethylamino-6-methylphenyl)urea]
6 | 63.5% | – | CCCCCCc1ccc2oc(NC(=O)Nc3c(C(C)C)cccc3C(C)C)c(-c3ccccc3Cl)c2c1 [Compound 27, N-[3-(2-Chlorophenyl)-5-n-hexylbenzofuran-2-yl]-N'-(2,6-diisopropylphenyl)urea]
7 | 81.7% | – | O=C(Nc1ccc(F)cc1F)Nc1sc2cc3c(cc2c1-c1ccccc1Cl)CCC3 [Compound 92, N-(3-(2-Chlorophenyl)-6,7-dihydro-5H-cyclopenta[f][1]benzothiophen-2-yl]-N'-(2,4-difluorophenyl)urea]
8 | 52.1% | 99.5% | Cc1cc(C)c2oc(NC(=O)Nc3c(C(C)C)cccc3C(C)C)c(-c3ccccc3Cl)c2c1 [Compound 43, N-[3-(2-Chlorophenyl)-5,7-dimethylbenzofuran-2-yl]-N'-(2,6-diisopropylphenyl)urea]
9 | 76.8% | 99.4% | Cc1cccc(C(C)C)c1NC(=O)Nc1oc2ccc(Cl)cc2c1-c1ccccc1Cl [Compound 15, N-[5-Chloro-3-(2-chlorophenyl)benzofuran-2-yl]-N'-(2-isopropyl-6-methylphenyl)urea]
10 | 41.4% | – | Cc1cc2sc(NC(=O)Nc3c(C(C)C)cccc3C(C)C)c(-c3ccccc3Cl)c2cc1C [Compound 81, N-(3-(2-Chlorophenyl)-5,6-dimethyl-1-benzothiophen-2-yl]-N'-(2,6-diisopropylphenyl)urea]
11 | 43.7% | – | CC(C)c1cccc(C(C)C)c1NC(=O)Nc1oc2cc3c(cc2c1-c1ccccc1Cl)CCC3 [Compound 53, N-[3-(2-Chlorophenyl)-6,7-dihydro-5H-cyclopenta[f]benzofuran-2-yl]-N'-(2,6-diisopropylphenyl)urea]
12 | 77.2% | 99.5% | Cc1cc2oc(NC(=O)Nc3c(C(C)C)cccc3C(C)C)c(-c3ccccc3Cl)c2cc1C [Compound 38, N-[3-(2-Chlorophenyl)-5,6-dimethylbenzofuran-2-yl]-N'-(2,6-diisopropylphenyl)urea]
13 | – | 94% | Cc1cc(C)c(NC(=O)Nc2oc3c(C)cc(C)cc3c2-c2ccccc2Cl)c(C)c1 [Compound 45, N-[3-(2-Chlorophenyl)-5,7-dimethylbenzofuran-2-yl]-N'-(2,4,6-trimethylphenyl)urea]
14 | 69.3% | – | Cc1ccc2oc(NC(=O)Nc3c(C(C)C)cccc3C(C)C)c(-c3ccccc3Cl)c2c1 [Compound 22, N-[3-(2-Chlorophenyl)-5-methylbenzofuran-2-yl]-N'-(2,6-diisopropylphenyl)urea]
15 | 85.8% | – | CCc1cccc(CC)c1NC(=O)Nc1sc2cc3c(cc2c1-c1ccccc1Cl)CCC3 [Compound 88, N-[3-(2-Chlorophenyl)-6,7-dihydro-5H-cyclopenta[f][1]benzothiophen-2-yl]-N'-(2,6-diethylphenyl)urea]
16 | 66% | – | Cc1cccc(C(C)C)c1NC(=O)Nc1sc2cc3c(cc2c1-c1ccccc1Cl)CCCC3 [Compound 98, N-[3-(2-Chlorophenyl)-5,6,7,8-tetrahydronaphtho[2,3-b]thiophen-2-yl]-N'-(2-isopropyl-6-methylphenyl)urea]

Row | inhibition at 0.01 µM | inhibition at 1 µM | SMILES
17 | – | 85.8% | Cc1ccc(S(=O)(=O)n2c(NC(=O)Nc3c(C)cccc3C(C)C)c(-c3ccccc3Cl)c3cc(C)cc(C)c32)cc1 [Compound 121, N-[3-(2-chlorophenyl)-5,7-dimethyl-1-(p-toluenesulfonyl)indole-2-yl]-N'-(2-isopropyl-6-methylphenyl)urea]
18 | 76.7% | – | O=C(Nc1sc2cc3c(cc2c1-c1ccccc1Cl)CCC3)Nc1c(F)cc(F)cc1F [Compound 94, N-[3-(2-Chlorophenyl)-6,7-dihydro-5H-cyclopenta[f][1]benzothiophen-2-yl]-N'-(2,4,6-trifluorophenyl)urea]
19 | 90.1% | – | O=C(Nc1ccc(F)cc1F)Nc1sc2cc3c(cc2c1-c1ccccc1Cl)CCCC3 [Compound 99, N-[3-(2-Chlorophenyl)-5,6,7,8-tetrahydronaphtho[2,3-b]thiophen-2-yl]-N'-(2,4-difluorophenyl)urea]
20 | 51.9% | 99.1% | Cc1cc(C)c2oc(NC(=O)Nc3c(Cl)cccc3Cl)c(-c3ccccc3Cl)c2c1 [Compound 49, N-[3-(2-Chlorophenyl)-5,7-dimethylbenzofuran-2-yl]-N'-(2,6-dichlorophenyl)urea]
21 | – | 60.4% | Cc1ccc(S(=O)(=O)n2c(NC(=O)Nc3ccc(F)cc3F)c(-c3ccccc3)c3ccccc32)cc1 [Compound 120, N-(2,4-Difluorophenyl)-N'-[3-phenyl-1-(p-toluenesulfonyl)-3-phenylindole-2-yl]urea]
22 | – | 77.9% | O=C(Nc1ccccc1)Nc1oc2ccc(Cl)cc2c1-c1ccccc1Cl [Compound 4, N-[5-Chloro-3-(2-chlorophenyl)benzofuran-2-yl]-N'-phenylurea]
23 | – | 93% | Cc1cc(C)c2oc(NC(=O)Nc3c(F)cccc3F)c(-c3ccccc3Cl)c2c1 [Compound 47, N-[3-(2-Chlorophenyl)-5,7-dimethylbenzofuran-2-yl]-N'-(2,6-difluorophenyl)urea]
24 | 69.2% | – | Cc1ccccc1-c1c(NC(=O)Nc2c(C)cccc2C(C)C)sc2cc3c(cc12)CCC3 [Compound 111, N-(2-Isopropyl-6-methylphenyl)-N'-[3-(2methylphenyl)-6,7-dihydro-5H-cyclopenta[f][1]benzothiophen-2-yl]urea]
25 | 32.1% | – | O=C(Nc1ccc(F)cc1F)Nc1oc2cc3c(cc2c1-c1ccccc1Cl)CCC3 [Compound 55, N-[3-(2-Chlorophenyl)-6,7-dihydro-5H-cyclopenta[f]benzofuran-2-yl]-N'-(2,4-difluorophenyl)urea]
26 | 44.4% | – | CC(C)c1cccc(C(C)C)c1NC(=O)Nc1sc2cc3c(cc2c1-c1ccccc1Cl)CCC3 [Compound 89, N-[3-(2-Chlorophenyl)-6,7-dihydro-5H-cyclopenta[f][1]benzothiophen-2-yl]-N'-(2,6-diisopropylphenyl)urea]
27 | 36.2% | – | O=C(Nc1ccc(F)cc1F)Nc1sc2cc3c(cc2c1-c1ccc(Cl)cc1Cl)CCC3 [Compound 107, N-[3-(2,4-Dichlorophenyl)-6,7-dihydro-5H-cyclopenta[f][1]benzothiophen-2-yl]-N'-(2,4-difluorophenyl)urea]
28 | 67% | – | Cc1cc2sc(NC(=O)Nc3c(C)cccc3C(C)C)c(-c3ccccc3Cl)c2cc1C [Compound 82, N-[3-(2-Chlorophenyl)-5,6-dimethyl-1-benzothiophen-2-yl]-N'-(2-isopropyl-6-methylphenyl)urea]
29 | 60.4% | – | Cc1cccc(C)c1NC(=O)Nc1sc2cc3c(cc2c1-c1ccccc1Cl)CCC3 [Compound 87, N-[3-(2-Chlorophenyl)-6,7-dihydro-5H-cyclopenta[f][1]benzothiophen-2-yl]-N'-(2,6-dimethylphenyl)urea]
30 | 15.4% | 98.5% | Cc1ccccc1NC(=O)Nc1oc2ccc(Cl)cc2c1-c1ccccc1Cl [Compound 5, N-[5-Chloro-3-(2-chlorophenyl)benzofuran-2-yl]-N'-(2-methylphenyl)urea]
31 | 71.3% | – | Cc1cccc(N(C)C)c1NC(=O)Nc1oc2ccc(Cl)cc2c1-c1ccccc1Cl [Compound 19, N-[5-chloro-3-(2-chlorophenyl)benzofuran-2-yl]-N'-(2-dimethylamino-6-methylphenyl)urea]
32 | 73.3% | – | CCc1ccc2oc(NC(=O)Nc3c(C(C)C)cccc3C(C)C)c(-c3ccccc3Cl)c2c1 [Compound 25, N-[3-(2-Chlorophenyl)-5-ethylbenzofuran-2-yl]-N'-(2,6-diisopropylphenyl)urea]
